We go through 8 compounds from ChEMBL document CHEMBL1201862, “PubChem BioAssay data set” (2004).

Among the test systems are NCI-H460; M14; SW-620; MOLT-4; HT-29; UO-31; TK-10; PC-3; SK-MEL-2; 786-0; SK-OV-3; KM12; IGROV-1; OVCAR-8; ACHN; RPMI-8226; RXF 393; CCRF-CEM; Malme-3M.
Common to all, as to test: NCI anticancer screen, dose series, 48 h

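Assay format: 96-well plates, 48-hour exposure. GI50: concentration for 50% inhibition of growth.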 The source made the active and inactive calls. Rule as the data show it: active = GI50 up to about 1.1 µM and inactive = higher. Bounds are passed on as bounds.

For `C=CCCCC1CCCNC1=S` (centres undefined), the GI50 in the assay with NCI-H460, in the assay on M14, in the assay on SW-620, with MOLT-4, in the assay on HT-29 and in the assay with UO-31 was > 100 µM (inactive) throughout. The GI50 in the assay with TK-10, with PC-3, in the assay on SK-MEL-2, with 786-0, in the assay with SK-OV-3 and with KM12 was > 100 µM (inactive) throughout. For the same compound, the GI50 in the assay on IGROV-1, in the assay on OVCAR-8, with ACHN, in the assay with RPMI-8226 and with RXF 393 was > 100 µM (inactive) in each case.

Take `CC[N+](CC)(CC)/C(=N\S(=O)(=O)c1ccc(Cl)cc1)[N-]S(=O)(=O)c1cc(C)c(Cl)cc1S`: the GI50 is 41 µM (inactive) with NCI-H460; 39.3 µM (inactive) in the assay on M14; 70.3 µM (inactive) in the assay with SW-620; 2.51 µM (inactive) in the assay with MOLT-4; 41.7 µM (inactive) with HT-29; > 100 µM (inactive) with UO-31. Further, the GI50 in the assay on CCRF-CEM is 59.3 µM (inactive); in the assay on TK-10, 58.7 µM (inactive); in the assay on PC-3, 55.8 µM (inactive); in the assay with SK-MEL-2 it was > 100 µM (inactive); in the assay on 786-0 it was > 100 µM (inactive); in the assay with SK-OV-3 it was 62.8 µM (inactive). Besides, the GI50 with KM12 was > 100 µM (inactive); with IGROV-1 it was > 100 µM (inactive); in the assay with OVCAR-8, > 100 µM (inactive); in the assay with ACHN, > 100 µM (inactive); with RPMI-8226 it was 47.3 µM (inactive); in the assay with RXF 393, 78.2 µM (inactive).

As for `O=C(CC(=O)N1N=C(N2CCCCC2)CC1c1ccccc1)Nc1ccc(Cl)cc1` (centres undefined), the GI50 with NCI-H460, in the assay on M14, with SW-620, in the assay with MOLT-4, with HT-29 and in the assay with UO-31 was > 100 µM (inactive) in each case. Moreover, the GI50 in the assay on CCRF-CEM, with Malme-3M, with TK-10, in the assay with PC-3, with SK-MEL-2 and in the assay with 786-0 was > 100 µM (inactive) in each case. In addition, the GI50 in the assay on KM12, in the assay with IGROV-1, with OVCAR-8 and with ACHN was > 100 µM (inactive) throughout.

On to `COC(=O)c1cc(OS(=O)(=O)C(F)(F)F)c(=O)n2c1CCCC2`, for which the GI50 in the assay with M14, in the assay on SW-620, with MOLT-4, in the assay on HT-29, in the assay with UO-31 and with CCRF-CEM was > 100 µM (inactive) in each case. The GI50 with Malme-3M, with TK-10, in the assay on PC-3, in the assay on SK-MEL-2, in the assay on 786-0 and in the assay on SK-OV-3 was > 100 µM (inactive) each time. Further, the GI50 in the assay on KM12, with IGROV-1, with OVCAR-8, in the assay on ACHN and in the assay on RXF 393 was > 100 µM (inactive) in each case.

Regarding `CCC(C#N)NCc1cccc(CNC(C#N)CC)c1` (centres undefined), the GI50 was > 100 µM (inactive) with NCI-H460; 17.6 µM (inactive) with M14; > 100 µM (inactive) in the assay with SW-620; > 100 µM (inactive) in the assay on MOLT-4; > 100 µM (inactive) with HT-29; > 100 µM (inactive) in the assay with UO-31. The GI50 in the assay with CCRF-CEM, with Malme-3M, in the assay with TK-10, with PC-3, in the assay on SK-MEL-2 and in the assay on 786-0 was > 100 µM (inactive) throughout. The GI50 was 18.4 µM (inactive) in the assay on SK-OV-3; > 100 µM (inactive) in the assay with KM12; > 100 µM (inactive) with IGROV-1; > 100 µM (inactive) with OVCAR-8; > 100 µM (inactive) in the assay on ACHN.

For the compound `CC1(C)[C@@H](Cn2nnc3c(N)ncnc32)CC[C@@]1(C)CO`, the GI50 was > 100 µM (inactive) in the assay on M14; > 100 µM (inactive) in the assay with SW-620; < 0.01 µM (active) in the assay on MOLT-4; > 100 µM (inactive) in the assay with UO-31; > 100 µM (inactive) in the assay on CCRF-CEM; > 100 µM (inactive) in the assay with TK-10. Further, the GI50 in the assay with PC-3, in the assay with SK-MEL-2, with 786-0, in the assay on SK-OV-3, with KM12 and with ACHN was > 100 µM (inactive) in each case. In addition, the GI50 with RPMI-8226 and with RXF 393 was > 100 µM (inactive) throughout.

As to `c1ccc(Nc2nnc(-c3ccccc3Nc3ccccc3-c3nnc(Nc4ccccc4)s3)s2)cc1`, the GI50 in the assay on NCI-H460 is > 100 µM (inactive); in the assay on M14 it was > 100 µM (inactive); in the assay with SW-620 it was > 100 µM (inactive); in the assay on MOLT-4, 61.7 µM (inactive); in the assay on HT-29, > 100 µM (inactive); in the assay with UO-31, > 100 µM (inactive). Moreover, the GI50 with CCRF-CEM, in the assay with Malme-3M, in the assay with TK-10, in the assay with PC-3, with SK-MEL-2 and with 786-0 was > 100 µM (inactive) each time. Also, the GI50 in the assay on KM12 is > 100 µM (inactive); in the assay with IGROV-1, 7.14 µM (inactive); in the assay with OVCAR-8, > 100 µM (inactive); in the assay with ACHN, > 100 µM (inactive); in the assay on RXF 393 it was > 100 µM (inactive).

For `CN1N=C(c2ccncc2)OC1c1cccc(F)c1` (centres undefined), the GI50 with NCI-H460, in the assay on M14, with SW-620, with MOLT-4, with HT-29 and in the assay with UO-31 was > 100 µM (inactive) throughout. The GI50 with CCRF-CEM, in the assay with TK-10, in the assay on PC-3, with SK-MEL-2, in the assay on 786-0 and with SK-OV-3 was > 100 µM (inactive) each time. Also, the GI50 in the assay on KM12, with IGROV-1, with OVCAR-8, in the assay with ACHN, with RPMI-8226 and with RXF 393 was > 100 µM (inactive) each time.
